Conditions: Liquid, Pycnometric method

CCCCCCCCCCCCCCCCCCCCC [heneicosane]
Conditions | specific volume [m3/kg]
313.65 K | 0.001285
315.75 K | 0.001283
317.65 K | 0.001286
319.65 K | 0.001288
321.55 K | 0.001289
323.55 K | 0.001291
325.45 K | 0.001294
327.45 K | 0.001296
329.35 K | 0.001299
331.25 K | 0.001302
333.25 K | 0.001302
335.15 K | 0.001304
337.15 K | 0.001307
339.05 K | 0.001309
341.05 K | 0.00131
342.95 K | 0.001313
344.85 K | 0.001315
346.85 K | 0.001317
348.75 K | 0.001321
350.75 K | 0.001324
352.65 K | 0.001325
354.65 K | 0.001329
354.85 K | 0.001329
356.55 K | 0.001331
358.45 K | 0.001333
360.45 K | 0.001335
362.35 K | 0.001337
364.35 K | 0.00134
366.25 K | 0.001342
368.15 K | 0.001344
370.15 K | 0.001349
372.05 K | 0.00135
374.05 K | 0.001354
375.45 K | 0.001353
375.95 K | 0.001354
377.95 K | 0.001358
379.85 K | 0.001361
381.75 K | 0.001362
383.75 K | 0.001366
385.65 K | 0.001367
387.65 K | 0.001369
389.55 K | 0.001373
391.55 K | 0.001373
393.45 K | 0.001377
395.35 K | 0.00138
396.05 K | 0.00138
397.35 K | 0.001381
399.25 K | 0.001386
401.25 K | 0.001384
403.15 K | 0.001387
405.15 K | 0.001392
407.05 K | 0.001394
408.95 K | 0.001396
410.95 K | 0.001401
412.85 K | 0.001401
414.85 K | 0.001404
416.65 K | 0.001408
416.75 K | 0.001409
418.65 K | 0.00141
420.65 K | 0.001411
422.55 K | 0.001417
424.55 K | 0.001419
426.45 K | 0.001421
428.45 K | 0.001423
430.35 K | 0.001426
432.25 K | 0.001432
434.25 K | 0.001432
436.15 K | 0.001436
437.25 K | 0.001437
438.15 K | 0.001437
440.05 K | 0.001443
442.05 K | 0.001444
443.95 K | 0.001448
445.85 K | 0.00145
447.85 K | 0.001454
449.75 K | 0.001455
451.75 K | 0.001458
453.65 K | 0.00146
455.65 K | 0.001464
457.55 K | 0.001467
457.85 K | 0.001468
459.45 K | 0.00147
461.45 K | 0.001471
463.35 K | 0.001476
465.35 K | 0.001479
467.25 K | 0.001484
469.15 K | 0.001485
471.15 K | 0.001489
473.05 K | 0.001491
475.05 K | 0.001492
476.95 K | 0.001497
478.45 K | 0.001498
478.95 K | 0.001502
480.85 K | 0.001503
482.75 K | 0.001505
484.75 K | 0.001511
486.65 K | 0.001513
488.65 K | 0.001516
488.75 K | 0.001517
490.55 K | 0.001519
492.55 K | 0.001521
494.45 K | 0.001523
496.35 K | 0.00153
498.35 K | 0.001531
500.25 K | 0.001537
502.25 K | 0.001536
504.15 K | 0.001543
506.15 K | 0.001544
508.05 K | 0.00155
509.95 K | 0.001551
511.95 K | 0.001554
513.85 K | 0.001559
515.85 K | 0.001564
517.75 K | 0.001567
519.65 K | 0.001569
521.65 K | 0.001575
523.55 K | 0.001575
525.55 K | 0.001582
527.45 K | 0.001586
529.45 K | 0.001588
531.35 K | 0.001588
533.25 K | 0.001596
535.25 K | 0.0016
537.15 K | 0.001603
539.15 K | 0.001606
541.05 K | 0.001612
543.05 K | 0.001614
544.95 K | 0.001617
546.85 K | 0.001621
548.85 K | 0.001626
550.75 K | 0.001626
552.75 K | 0.001634
554.65 K | 0.001635
556.65 K | 0.001639
558.55 K | 0.001643
560.45 K | 0.001648
562.45 K | 0.00165
564.35 K | 0.001657
566.35 K | 0.001659

CCCCCCCCCCCCCCCC [hexadecane]
Conditions | specific volume [m3/kg]
298 K | 0.001313
323 K | 0.001344
348 K | 0.001376
373 K | 0.001411
398 K | 0.001447
423 K | 0.001486
448 K | 0.001529
473 K | 0.001575
498 K | 0.001626
523 K | 0.001682
548 K | 0.001744
573 K | 0.001811

From the NIST ThermoML archive (doi:10.1016/j.tca.2006.04.001)
